The source of these data is patent publication US20100160443A1, “COMPOUNDS USEFUL FOR TREATING NEUROLOGICAL DISORDERS” (Yissum Research Development Company of The Hebrew …, priority 2003, published 2010).

In data set [1] the test system is tactile allodynia in rats with SNL neuropathy. The note with it: i.p., rat; literature data (footnoted); cited from earlier work.
The subject of data set [2] is maximal electroshock (MES) test. The note with it: rat, cited from earlier work.
The conditions of data set [3]: cited from earlier work.
The test system of data set [4] is tactile allodynia in rats with SNL neuropathy. Nature of the data set: Tactile allodynia (von Frey filaments) in the spinal nerve ligation (SNL) model of neuropathic pain. The format is in vivo, rat. The following applies: for ED50: Rattus norvegicus, 1 h, read-out: ED50 (tactile allodynia threshold). Here is the method: The effect on neuropathic pain (tactile allodynia) was measured 5-6 days following operation as disclosed above. Rats responding to mechanical stimuli of 10 g or less (in the operated leg) were eligible for the study and were included in the drug administration regime.
Briefly, under ketamine-xylazine anesthesia the rat was placed in a prone position and the left paraspinal muscles were separated from spinous processes at the L4-S2 level. Part of the L6 transverse process was removed and the L4-L6 spinal nerves were identified. The L5-L6 spinal nerves were isolated and tightly ligated and cut, distal to the dorsal root ganglion and proximal to the formation of the sciatic nerve. Following complete homeostasis the wound was sutured.
A volume of 4 ml/kg (volume of injected suspension/rat body weight) was then injected to the rats. […] The three drugs and the control vehicle were administered i.p. (intraperitoneally) to rats at postoperative days 7, 14 and 21 in a double blind randomized crossover manner.
The rat was placed on a metal mesh floor covered with a transparent plastic dome, a period of acclimatization was allowed prior to testing. VFFs were applied from underneath the mesh floor to the plantar surface of the foot. Each trial consisted of repeated applications of each of the VFFs in an ascending order for 5 times, each for a period of 1 second. testing between two consecutive ascending VFFs was separated by period of 2 min. If the rat withdrew the foot at least 3 times out of 5 at a specific VFF no further ascending filaments were tested and this filament was considered as a withdrawal threshold (response). Mechanical stimulus trials with the series of ascending VFF were repeated 2 times for a given time point. The repeated measurements were averaged and taken as the paw withdrawal threshold on a given time point.
The absolute threshold and the difference in the allodynic threshold (time point minus baseline) values were tested using Mann-Whitney Test and Kruskal-Wallis Nonparametric test (two tailed) followed by Dunn's Multiple comparison test. The ED50 (median effective dose) was calculated by using Probit analysis method.
Briefly, under ketamine-xylazine anesthesia (85 mg kg^−1, i.p and 13 mg kg^−1, i.p, respectively) rats were placed in a prone position and paraspinal muscles on the left were separated from the L4-S2 spinous processes. Part of the L6 transverse process was removed and the underlying L4-L6 spinal nerves were identified. The L5 and L6 spinal nerves were isolated, tightly ligated with 5-0 silk, and cut just distal to the ligature. The ligature was approximately 8 mm distal to the corresponding dorsal root ganglion (DRG). Following complete homeostasis the wound was sutured in layers, the skin closed with Michel clips, topical bacteriostatic power was applied, and 20000 units of duplo-penicillin was injected intramuscularly (i.m.).
We used a set of 9 nylon von Frey monofilaments (VFF, Semmes-Weinstein monofilaments, Stoelting, Wood Dale, Ill., USA) to quantify foot withdrawal in response to normally innocuous tactile stimuli. […] Forces were calibrated by lowering filaments onto the pan of an electronic balance until they just bent.
Rats were placed on a raised wire mesh screen (gaps 4 mm×4 mm), which allowed access to the plantar surface of the hindpaw from below. They were covered with a transparent plastic dome, 13 cm high, which prevented rearing on the hindlimbs. A period of 20 min was allowed for acclimation prior to sensory testing. The mid-plantar hindpaw skin just caudal to the footpads, half way between medial and lateral edges of the foot, was subjected to a series of 5 brief probes, spaced at about 1 s. Each such stimulus was sufficient to just bend the filament. Testing began with the filament with the weakest initial bending force (0.6 g). […] Response threshold was the bending force of the first monofilament in the series that evoked a criterion ≧⅗ responses.

The test system of data set [5] is motor performance (rotarod test). Briefly: Neurological motor dysfunction tests (accelerating rotarod, observation for sedation). Here is the method:
On the day of testing, a baseline response was obtained, and rats were subsequently administered drug or vehicle. […] In addition, we examined our rats individually for signs of motor dysfunction and sedation as assessed by posture and gate during spontaneous and induced movement, grooming, chewing, stepping reflex, and startle reflex evoked by tapping on the cage.
For each drug and dose, attenuation of tactile allodynia (threshold measured in g) was measured. […] These areas under the response curve values for every group of rats per dose were evaluated against vehicle treatment using the nonparametric Wilcoxon one tailed test (dose of drug tested vs. vehicle on the same treatment). […] A p value <0.05 was considered statistically significant.
In general terms: Falling from the rotarod earlier than controls is read as motor impairment.

Data set [6] has as its system neural tube defects (NTDs). The note with it: cited from earlier work.
Data set [7] concerns maximal electroshock (MES) test. Nature of the data set: Anticonvulsant activity, maximal electroshock (MES) test. It counts as in vivo. The following applies: different study, data not shown. The source says: Pain 73, 223-230); Blom, 1962 (BLOM, S. (1962). Trigeminal neuralgia: its treatment with a new anticonvulsant drug. Lancet; 1, 839-840); Rogawski & Loscher, 2004b (ROGAWSKI, M. A., & LOSCHER, W. (2004b). The neurobiology of antiepileptic drugs for the treatment of nonepileptic conditions. Nat. Med., 10, 685-692)). The availability of ED50 data for a series of new anticonvulsant isomers and analogues of VPD (valpromide) provides an opportunity for testing this hypothesis. […] Philadelphia: Lippincott Williams & Wilkins)).

[8] abbreviates: p.o., taken from previous studies.
[9] abbreviates: i.p., rat, 60 min post injection, DID at 120 min.

Entries after “also recorded” stand apart in the source; their conditions may differ. Like-named read-outs stand apart in the source and are kept apart here. Marks after values point to notes of the source that are not given here.

As usually defined, the ED50 is the midpoint of the dose-response relation.

For the compound `Nc1nnc(-c2cccc(Cl)c2Cl)c(N)n1` [LTG, lamotrigine], the SNL-ED50 in data set [1] is recorded as >100^d mg kg^−1. The MES-ED50 in data set [2] (setting [8]) is given as 1.3^a mg kg^−1. Moreover, in data set [3] (literature data), the Brain-to-plasma ratio is on record as 0.4^h.
As to `NC(=O)OCC(COC(N)=O)c1ccccc1` [FBM, felbamate], the SNL-ED50 in data set [1] is reported as >600^d mg kg^−1. Besides, in data set [2] (setting [8]), the MES-ED50 was 25.3^a mg kg^−1. In addition, the Brain-to-plasma ratio in data set [3] (literature data) is 0.64^f.
In the case of `CCC(C)C(CC)C(N)=O` (stereo not shown) [VCD, 2-ethyl-3-methyl-pentanoic acid amide], in data set [4] (ip), the ED50 stood at 52.3 mg/kg. Besides, the “dose dependence of the antiallodynic effect” value (“dose dependence” below) in data set [4] (i.p., rat) was “in a dose dependent manner”. In data set [4] (rat, in vivo), the “antiallodynic effect / effectiveness for treating neuropathic pain” value (shortened to “antiallodynic effect / effectiveness”) is “effective for treating neuropathic pain”. In data set [4] (rat, in vivo, ip), the SNL-ED50 worked out at 52 mg/kg and the “time of maximal effect after administration” value (“time of maximal effect” below) was 60 min. Besides, the “neurological motor dysfunction or sedation at the highest drug dose tested” value in data set [5] (highest drug dose tested, normal rats) is on record as “not sufficient to cause neurological motor dysfunction or sedation”. Also, the MES-ED50 in data set [2] (setting [8]) was 29^c mg kg^−1. Further, the teratogenicity entry in data set [6] (literature) was “distinctly less teratogenic than VPA”.
Consider `CC1(C)C(C(=O)O)C1(C)C` [TMCA, 2,2,3,3-tetramethylcyclopropanecarboxylic acid], for which, in data set [4] (SNL model, rat), the “antiallodynic effect / effectiveness” value was “exhibit antiallodynic effect”. The “anticonvulsant activity in the rat-MES test” value in data set [7] is “without any anticonvulsant activity”.
With `CC1(C)C(C(N)=O)C1(C)C` [TMCD, 2,2,3,3-tetramethylcyclopropanecarboxamide], the ED50 in data set [4] (ip) was determined as 84.5 mg/kg. Also, the “antiallodynic effect / effectiveness” value in data set [4] (rat, in vivo) is recorded as “exhibit antiallodynic effect; also recorded: effective for treating neuropathic pain”. Besides, in data set [4] (rat, in vivo, ip), the “dose dependence” value is listed as “in a dose dependent manner” and the “time of maximal effect” value was determined as 60 min. In addition, the “anticonvulsant activity in the rat-MES test” value in data set [7] is given as “without any anticonvulsant activity”.
With `CNC(=O)C1C(C)(C)C1(C)C` [M-TMCD, N-methyl-2,2,3,3-tetramethylcyclopropanecarboxamide], in data set [4] (ip), the ED50 is 41 mg/kg. In data set [4] (rat, in vivo), the “antiallodynic effect / effectiveness” value is “effective for treating neuropathic pain”. Also, in data set [4] (rat, in vivo, ip), the “dose dependence” value is reported as “in a dose dependent manner” and the “time of maximal effect” value was 60 min. For the same compound, the teratogenicity entry in data set [6] (in vivo) was “lack of teratogenicity”.
As to `CC(C)C(C(=O)O)C(C)C` [DIA, diisopropylacetic acid], in data set [4] (rat, in vivo), the “antiallodynic effect / effectiveness” value is listed as “effective for treating neuropathic pain”. In data set [4] (rat, in vivo, ip), the SNL-ED50 was over 300 mg/kg, the “lowest effective dose (significant increase of the allodynic threshold vs vehicle)” value worked out at 300 mg/kg and the “rats regarded as protected at the highest dose” value worked out at 25%.
In the case of `CCCC(CCC)C(N)=O` [VPD, valpromide, reference compound], in data set [4] (setting [9]), the SNL-ED50 came out at 61 mg/kg. Further, the “neurological motor dysfunction or sedation at the highest drug dose tested” value in data set [5] (rat, in vivo) is recorded as “not sufficient to cause neurological motor dysfunction or sedation”. The MES-ED50 in data set [2] (setting [8]) is recorded as 32^b mg kg^−1. Moreover, the Brain-to-plasma ratio in data set [3] (literature data) was 0.84^c.
As to `NC(=O)N1c2ccccc2C=Cc2ccccc21` [CBZ, carbamazepine], the SNL-ED50 in data set [1] is reported as >30^c mg kg^−1. For the same compound, the MES-ED50 in data set [2] (setting [8]) is on record as 5.4^a mg kg^−1. In addition, in data set [3] (literature data), the Brain-to-plasma ratio is 1.0^i.
In data set [4] (setting [9]), `CCCC(CCC)C(=O)NC` [MVPD, N-methyl-valpromide, reference compound] displayed an SNL-ED50 of over 120 mg/kg. The MES-ED50 in data set [2] (setting [8]) was 65 mg/kg.
For `CCC(C)C(CC)C(=O)O` (stereo not shown) [VCA, 2-ethyl-3-methyl-pentanoic acid], the SNL-ED50 in data set [4] (setting [9]) was over 300 mg/kg.
As to `NCC1(CC(=O)O)CCCCC1` [GBP, gabapentin], the SNL-ED50 in data set [1] is 34^d mg kg^−1. Also, the MES-ED50 in data set [2] (in vivo, po) was 14.8^a mg kg^−1. Moreover, the Brain-to-plasma ratio in data set [3] (rat, in vivo) is on record as 0.85^e.
